Data taken from patent publication US8129366B2, “VLA-4 inhibitory drug” (Daiichi Sankyo Company, Limited, priority 2005, dated 2012).
Values after ≈ are worked out from the molar mass of the structure shown.

Experiments:
[1] = molecular target: T1, hα4 and β1 integrins (Homo sapiens, UniProt P05556+P13612); experiment: In vitro inhibition of binding between CHO cells expressing hα4 and β1 integrins and Eu3+-hVCAM-1 D1D7-IgG; conditions: for Ki: CHO cells expressing hα4 and β1 integrins, Eu3+-hVCAM-1 D1D7-IgG ligand, without HSA; for IC50: in the presence of 3% human serum albumin (HSA final concentration 3%)
T1 construct: expressed in transfected cells; host or cells: CHO cells
T1 sequence (P13612 34-1032): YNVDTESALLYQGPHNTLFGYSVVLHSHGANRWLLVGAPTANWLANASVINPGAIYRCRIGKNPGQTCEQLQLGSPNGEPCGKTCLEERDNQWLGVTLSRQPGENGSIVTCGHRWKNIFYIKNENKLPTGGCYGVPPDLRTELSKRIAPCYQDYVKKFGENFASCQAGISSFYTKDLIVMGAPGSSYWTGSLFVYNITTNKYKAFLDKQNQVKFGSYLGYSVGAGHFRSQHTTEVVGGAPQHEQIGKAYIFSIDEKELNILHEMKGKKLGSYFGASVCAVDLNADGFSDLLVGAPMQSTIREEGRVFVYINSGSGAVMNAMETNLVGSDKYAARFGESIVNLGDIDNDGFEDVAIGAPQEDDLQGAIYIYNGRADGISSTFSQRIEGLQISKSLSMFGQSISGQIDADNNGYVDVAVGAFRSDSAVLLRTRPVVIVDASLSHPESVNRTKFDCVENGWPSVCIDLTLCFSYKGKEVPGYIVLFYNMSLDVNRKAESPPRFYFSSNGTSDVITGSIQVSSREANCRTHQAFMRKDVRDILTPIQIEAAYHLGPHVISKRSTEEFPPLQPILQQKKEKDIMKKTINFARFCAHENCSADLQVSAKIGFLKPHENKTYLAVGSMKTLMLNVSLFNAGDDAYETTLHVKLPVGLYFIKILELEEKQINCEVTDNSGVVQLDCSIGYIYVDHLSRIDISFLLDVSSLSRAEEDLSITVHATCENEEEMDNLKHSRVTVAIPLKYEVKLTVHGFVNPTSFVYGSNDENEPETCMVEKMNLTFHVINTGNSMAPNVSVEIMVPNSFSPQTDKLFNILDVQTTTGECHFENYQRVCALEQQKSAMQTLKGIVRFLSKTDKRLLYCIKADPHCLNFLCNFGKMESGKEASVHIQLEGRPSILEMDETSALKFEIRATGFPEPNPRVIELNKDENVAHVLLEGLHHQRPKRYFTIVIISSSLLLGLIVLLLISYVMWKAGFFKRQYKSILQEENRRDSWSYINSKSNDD
T1 sequence (P05556 21-798): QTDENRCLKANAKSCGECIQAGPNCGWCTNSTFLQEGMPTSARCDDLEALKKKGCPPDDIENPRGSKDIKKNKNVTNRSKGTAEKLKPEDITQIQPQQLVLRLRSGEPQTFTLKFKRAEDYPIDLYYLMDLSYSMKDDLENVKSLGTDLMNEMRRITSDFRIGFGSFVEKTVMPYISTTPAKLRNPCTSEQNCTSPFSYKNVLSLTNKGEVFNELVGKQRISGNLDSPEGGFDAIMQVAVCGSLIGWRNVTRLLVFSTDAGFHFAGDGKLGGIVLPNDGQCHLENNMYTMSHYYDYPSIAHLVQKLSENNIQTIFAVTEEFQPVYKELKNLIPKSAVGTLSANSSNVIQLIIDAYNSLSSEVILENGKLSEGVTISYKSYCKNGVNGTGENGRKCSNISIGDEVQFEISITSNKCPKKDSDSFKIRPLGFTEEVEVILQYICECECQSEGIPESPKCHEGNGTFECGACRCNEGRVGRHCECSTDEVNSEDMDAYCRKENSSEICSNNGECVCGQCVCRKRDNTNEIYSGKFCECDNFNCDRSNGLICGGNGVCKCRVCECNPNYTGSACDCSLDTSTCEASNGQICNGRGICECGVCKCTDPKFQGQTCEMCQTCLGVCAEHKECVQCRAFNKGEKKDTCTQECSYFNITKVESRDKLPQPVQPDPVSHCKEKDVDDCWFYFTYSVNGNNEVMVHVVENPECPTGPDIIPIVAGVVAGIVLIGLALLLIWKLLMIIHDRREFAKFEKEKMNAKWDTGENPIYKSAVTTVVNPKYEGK
How it was run: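 Bound europium-labelled VCAM-1 D1D7-IgG on α4β1-expressing CHO cells was measured by time-resolved fluorescence after washing at 4 °C. Ligand (2 nM working dilution) and test compound, with or without 3% final HSA, were co-incubated for 1 h at room temperature in Mn²⁺-containing HEPES buffer, pH 7.5. IC50 came from % binding inhibition; Ki was calculated from ligand concentration and Scatchard Kd.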

[2] = Solubility test in first and second liquid of the Japanese Pharmacopoeia; conditions: Solubility
Protocol: The solubilities of the substance under test in the first liquid (JP1, pH=1.2) of the Japanese Pharmacopoeia and the second liquid (JP2, pH=6.8) of the Japanese Pharmacopoeia, were evaluated.

[3] = first liquid of the Japanese Pharmacopoeia (JP1), pH 1.2, simulated gastric fluid, First liquid of Japanese Pharmacopoeia (μg/mL), JP1, pH=1.2
[4] = second liquid of the Japanese Pharmacopoeia (JP2), pH 6.8, aqueous buffer, Second liquid of Japanese Pharmacopoeia (μg/mL), JP2, pH=6.8

Ki [1] [nM]	IC50 [1] [nM]	solubility [2, 3] [µg/mL]	solubility [2, 4] [µg/mL]	SMILES
4.2	12	1000 (≈ 1470 µM)	1000 (≈ 1470 µM)	CN(C)CC1CN([C@H]2C[C@@H](CO[C@H]3CC[C@H](C(=O)O)CC3)N(C(=O)Cc3cc(Cl)c(NC(=O)c4cn(C)c5ccccc45)cc3F)C2)C1 [Example 29, Trans-4-[1-[[5-chloro-2-fluoro-4-[(1-methyl-1H-indol-3-ylcarbonyl)amino]phenyl]acetyl]-(4S)-[3-(N,N-dimethylaminomethyl)azetidin-1-yl]-(2S)-pyrrolidinylmethoxy]cyclohexane carboxylic acid]
3.8	43	1000 (≈ 1400 µM)	1000 (≈ 1400 µM)	O=C(Nc1cc(F)c(CC(=O)N2C[C@@H](N3CC(N4CCOCC4)C3)C[C@H]2CO[C@H]2CC[C@H](C(=O)O)CC2)cc1Cl)c1csc2ccccc12 [Example 27, Trans-4-[1-[[4-[(benzo[b]thiophen-3-ylcarbonyl)amino]-5-chloro-2-fluorophenyl]acetyl]-(4S)-[3-(4-morpholinyl)azetidin-1-yl]-(2S)-pyrrolidinylmethoxy]cyclohexanecarboxylic acid]
2	9.9	> 2000	1640 (≈ 2390 µM)	CCO[C@@H]1CCN([C@H]2C[C@@H](CO[C@H]3CC[C@H](C(=O)O)CC3)N(C(=O)Cc3cc(Cl)c(NC(=O)c4csc5ccccc45)cc3F)C2)C1 [Example 34, Trans-4-[1-[[4-[(benzo[b]thiophen-3-ylcarbonyl)amino]-5-chloro-2-fluorophenyl]acetyl]-(4S)-[(3R)-ethoxypyrrolidin-1-yl]-(2S)-pyrrolidinylmethoxy]cyclohexanecarboxylic acid]
0.42	14	> 2000	> 2000	CC(=O)N[C@H]1CCN([C@H]2C[C@@H](CO[C@H]3CC[C@H](C(=O)O)CC3)N(C(=O)Cc3cc(Cl)c(NC(=O)c4csc5ccccc45)cc3F)C2)C1 [Example 66, Trans-4-[1-[[4-[(benzo[b]thiophen-3-ylcarbonyl)amino]-5-chloro-2-fluorophenyl]acetyl]-(4S)-[(3S)-acetamidopyrrolidin-1-yl]-(2S)-pyrrolidinylmethoxy]cyclohexanecarboxylic acid]
2.8	9.5	1000 (≈ 1400 µM)	1000 (≈ 1400 µM)	CC(C)N1CCN([C@H]2C[C@@H](CO[C@H]3CC[C@H](C(=O)O)CC3)N(C(=O)Cc3cc(Cl)c(NC(=O)c4cn(C)c5ccccc45)cc3Cl)C2)CC1 [Example 113, Trans-4-[1-[[2,5-dichloro-4-[(1-methyl-1H-indol-3-ylcarbonyl)amino]phenyl]acetyl]-(4S)-(4-isopropylpiperazin-1-yl)-(2S)-pyrrolidinylmethoxy]cyclohexanecarboxylic acid]
1.8	7.6	1200 (≈ 1650 µM)	1200 (≈ 1650 µM)	CN(C)C(=O)C1CCN([C@H]2C[C@@H](CO[C@H]3CC[C@H](C(=O)O)CC3)N(C(=O)Cc3cc(Cl)c(NC(=O)c4coc5ccccc45)cc3Cl)C2)CC1 [Example 107, Trans-4-[1-[[4-[(benzo[b]furan-3-ylcarbonyl)amino]-2,5-dichlorophenyl]acetyl]-(4S)-[4-(dimethylcarbamoyl)piperidin-1-yl]-(2S)-pyrrolidinylmethoxy]cyclohexanecarboxylic acid]
3.4	25	1000 (≈ 1420 µM)	1000 (≈ 1420 µM)	CO[C@H]1CN([C@H]2C[C@@H](CO[C@H]3CC[C@H](C(=O)O)CC3)N(C(=O)Cc3cc(Cl)c(NC(=O)c4coc5ccccc45)cc3Cl)C2)C[C@@H]1OC [Example 54, Trans-4-[1-[[4-[(benzo[b]furan-3-ylcarbonyl)amino]-2,5-dichlorophenyl]acetyl]-(4S)-[(3S,4S)-dimethoxypyrrolidin-1-yl]-(2S)-pyrrolidinylmethoxy]cyclohexanecarboxylic acid]
5.8	18	1000 (≈ 1400 µM)	1000 (≈ 1400 µM)	CO[C@H]1CN([C@H]2C[C@@H](CO[C@H]3CC[C@H](C(=O)O)CC3)N(C(=O)Cc3cc(Cl)c(NC(=O)c4cn(C)c5ccccc45)cc3Cl)C2)C[C@@H]1OC [Example 51, Trans-4-[1-[[2,5-dichloro-4-[(1-methyl-1H-indol-3-ylcarbonyl)amino]phenyl]acetyl]-(4S)-[(3S,4S)-dimethoxypyrrolidin-1-yl]-(2S)-pyrrolidinylmethoxy]cyclohexanecarboxylic acid]
0.74	3.5	1700 (≈ 2530 µM)	1690 (≈ 2510 µM)	CO[C@@H]1CCN([C@H]2C[C@@H](CO[C@H]3CC[C@H](C(=O)O)CC3)N(C(=O)Cc3cc(Cl)c(NC(=O)c4csc5ccccc45)cc3F)C2)C1 [Example 32, Trans-4-[1-[[4-[(benzo[b]thiophen-3-ylcarbonyl)amino]-5-chloro-2-fluorophenyl]acetyl]-(4S)-[(3R)-methoxypyrrolidin-1-yl]-(2S)-pyrrolidinylmethoxy]cyclohexanecarboxylic acid]
1.5	8.8	1200 (≈ 1790 µM)	1300 (≈ 1940 µM)	O=C(Nc1cc(F)c(CC(=O)N2C[C@@H](N3C[C@@H]4OCO[C@@H]4C3)C[C@H]2CO[C@H]2CC[C@H](C(=O)O)CC2)cc1Cl)c1coc2ccccc12 [Example 74, Trans-4-[1-[[4-[(benzo[b]furan-3-ylcarbonyl)amino]-5-chloro-2-fluorophenyl]acetyl]-(4S)-[(3a,6a-cis)-tetrahydro[1,3]dioxolo[4,5-c]pyrrol-5-yl]-(2S)-pyrrolidinylmethoxy]cyclohexanecarboxylic acid]
0.95	8.1	1200 (≈ 1840 µM)	1200 (≈ 1840 µM)	C[C@@H]1CN([C@H]2C[C@@H](CO[C@H]3CC[C@H](C(=O)O)CC3)N(C(=O)Cc3ccc(NC(=O)c4coc5ccccc45)c(Cl)c3)C2)C[C@H](C)O1 [Example 87, Trans-4-[1-[[4-[(benzo[b]furan-3-ylcarbonyl)amino]-3-chlorophenyl]acetyl]-(4S)-(cis-2,6-dimethylmorpholin-4-yl)-(2S)-pyrrolidinylmethoxy]cyclohexanecarboxylic acid]
4.5	27	1300 (≈ 1960 µM)	1200 (≈ 1810 µM)	C[C@@H]1CN([C@H]2C[C@@H](CO[C@H]3CC[C@H](C(=O)O)CC3)N(C(=O)Cc3ccc(NC(=O)c4nccc5ccccc45)c(Cl)c3)C2)C[C@H](C)O1 [Example 86, Trans-4-[1-[[3-chloro-4-[(isoquinolin-1-ylcarbonyl)amino]phenyl]acetyl]-(4S)-(cis-2,6-dimethylmorpholin-4-yl)-(2S)-pyrrolidinylmethoxy]cyclohexanecarboxylic acid]
2	11	1000 (≈ 1460 µM)	1000 (≈ 1460 µM)	CO[C@H]1CN([C@H]2C[C@@H](CO[C@H]3CC[C@H](C(=O)O)CC3)N(C(=O)Cc3cc(Cl)c(NC(=O)c4coc5ccccc45)cc3F)C2)C[C@@H]1OC [Example 53, Trans-4-[1-[[4-[(benzo[b]furan-3-ylcarbonyl)amino]-5-chloro-2-fluorophenyl]acetyl]-(4S)-[(3S,4S)-dimethoxypyrrolidin-1-yl]-(2S)-pyrrolidinylmethoxy]cyclohexanecarboxylic acid]
